Measurements: patent publication US4341768A, “Antibiotic compounds” (priority 1981, dated 1982)
Bridge positions count the residues as written; N and C are the ends. Square brackets hold non-standard residues; d marks the D form. Peptide text beside a SMILES is read from it. * marks the point of attachment. X1 = CCC(C)CCCCC(O)CC(=O)*; dDab = NCC[C@@H](N)C(=O)O; Dab = NCC[C@H](N)C(=O)O

Columns and labels:
Acute toxicity in mice = assay type: in vivo; conditions: for LD50: mouse, in vivo
Experimental: The acute toxicities of Bu-2470 A and B1 were determined in mice by intravenous(iv) and subcutaneous (sc) routes. Colistin was tested comparatively as a reference compound.

| Compound | Acute toxicity relative to colistin (Acute toxicity in mice; iv route) | LD50 (Acute toxicity in mice; intravenous) [mg/kg] | LD50 (Acute toxicity in mice; sc, subcutaneous) [mg/kg] | Acute toxicity relative to colistin (Acute toxicity in mice; sc route) | Solubility in aqueous lower alcohols, aqueous dioxane, dimethylsulfoxide and dimethylformamide (Solubility; aqueous lower alcohols, aqueous dioxane, dimethylsulfoxide, dimethylformamide) | Solubility in lower alcohols (Solubility; lower alcohols) | Solubility in other organic solvents (Solubility; other organic solvents) | Solubility in water (Solubility; water over a wide pH range) |
| --- | --- | --- | --- | --- | --- | --- | --- | --- |
| CC(C)C[C@@H]1NC(=O)[C@H](CCN)NC(=O)[C@H](CCN)NC(=O)[C@H](CC(C)C)NC(=O)[C@@H](Cc2ccccc2)NC(=O)[C@H](CCN)NC(=O)[C@@H](NC(=O)[C@H](N)CCN)CCNC1=O [Bu-2470A] (H-[dDab][Dab][Dab][dF]L[Dab][Dab]L; lactam 2-C) | less toxic than colistin | 35 | 56 | more toxic | readily soluble | slightly soluble | practically insoluble | readily soluble |
| CCC(C)CCCCC(O)CC(=O)N[C@H](CCN)C(=O)N[C@H]1CCNC(=O)[C@H](CC(C)C)NC(=O)[C@H](CCN)NC(=O)[C@H](CCN)NC(=O)[C@H](CC(C)C)NC(=O)[C@@H](Cc2ccccc2)NC(=O)[C@H](CCN)NC1=O (stereo partly drawn) [Bu-2470B1] (X1-[dDab][Dab][Dab][dF]L[Dab][Dab]L; lactam 2-C) | less toxic than colistin | 35 | 280 | less toxic than colistin | – | – | – | – |
